Reference: the supplement of paper PMC7287046

Key:
Conditions in all cases: exposure time: 72 h
SNB75 [1] = test system: SNB75
Protocol: (§1)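 Glioma cell lines and primary cultures were treated with single drugs in a nine-step threefold dilution series, about 72 h. Viability was read by CellTiter-Glo and normalised to untreated controls. Absolute IC50 was fitted in GraphPad Prism; values beyond the tested dose range are censored at the block's top or lowest dose.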

U251 [2] = test system: U251
Protocol: as §1

KNS42 [3] = test system: KNS42
Protocol: as §1

T98 [4] = test system: T98
Protocol: as §1

SF268 [5] = test system: SF268
Protocol: as §1

SF539 [6] = test system: SF539
Protocol: as §1

U87 [7] = test system: U87
Protocol: as §1

U118 [8] = test system: U118
Protocol: as §1

AM38 [9] = test system: AM38
Protocol: as §1

CAS-1 = test system: CAS-1
Protocol: as §1

KNS-42 [10] = assay: Bliss synergy score (Combenefit); higher = more synergy; extreme values may be limits of the assay
Procedure, shortened: (§2)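 Loewe, Bliss and highest single agent synergy scores came from Combenefit analysis of normalised viability matrices, with viability measured by CellTiter-Glo as percent of DMSO controls. To build the matrices, drug pairs were applied to glioma cell lines in 96-well plates as 6 × 6 grids of twofold dilutions, 24 h after plating, and read three days later. The top concentration of each drug was its own IC50.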

AM-38 [11] = assay: as above
Procedure, shortened: as §2

T98G [12] = assay: as above
Procedure, shortened: as §2

SNB75 [13] = assay: as above
Procedure, shortened: as §2

U251 [14] = assay: as above
Procedure, shortened: as §2

SF268 [15] = assay: as above
Procedure, shortened: as §2

SF539 [16] = assay: as above
Procedure, shortened: as §2

U87 [17] = assay: as above
Procedure, shortened: as §2

U118 [18] = assay: as above
Procedure, shortened: as §2

KNS-42 [19] = assay: Loewe synergy score (Combenefit); higher = more synergy; extreme values may be limits of the assay
Procedure, shortened: as §2

AM-38 [20] = assay: as above
Procedure, shortened: as §2

T98G [21] = assay: as above
Procedure, shortened: as §2

SNB75 [22] = assay: as above
Procedure, shortened: as §2

U251 [23] = assay: as above
Procedure, shortened: as §2

SF268 [24] = assay: as above
Procedure, shortened: as §2

SF539 [25] = assay: as above
Procedure, shortened: as §2

U87 [26] = assay: as above
Procedure, shortened: as §2

U118 [27] = assay: as above
Procedure, shortened: as §2

KNS-42 [28] = assay: HSA synergy score (Combenefit); higher = more synergy
Procedure, shortened: as §2

AM-38 [29] = assay: as above
Procedure, shortened: as §2

T98G [30] = assay: as above
Procedure, shortened: as §2

SNB75 [31] = assay: as above
Procedure, shortened: as §2

U251 [32] = assay: as above
Procedure, shortened: as §2

SF268 [33] = assay: as above
Procedure, shortened: as §2

SF539 [34] = assay: as above
Procedure, shortened: as §2

U87 [35] = assay: as above
Procedure, shortened: as §2

U118 [36] = assay: as above
Procedure, shortened: as §2

SNB75 [37] = assay: Chou-Talalay combination index (dimensionless); higher = less synergy (more antagonism)
Procedure, shortened: (§3)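 For combination testing, glioma cell lines were seeded at optimal density in 96-well plates, or in low-adhesion plates for primary cultures. Treatment began after 24 h with two drugs crossed in a 6 × 6 matrix of twofold dilutions, alongside an untreated control repeated sixfold, and CellTiter-Glo was read three days later at least in triplicate. Dilutions of each drug started from its single-drug IC50. Viability relative to DMSO controls, in percent, fed a median-effect calculation of the Chou–Talalay combination index.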

U251 [38] = assay: as above
Procedure, shortened: as §3

KNS42 [39] = assay: as above
Procedure, shortened: as §3

T98 [40] = assay: as above
Procedure, shortened: as §3

SF268 [41] = assay: as above
Procedure, shortened: as §3

SF539 [42] = assay: as above
Procedure, shortened: as §3

U87 [43] = assay: as above
Procedure, shortened: as §3

U118 [44] = assay: as above
Procedure, shortened: as §3

AM38 [45] = assay: as above
Procedure, shortened: as §3

## N#CC(c1ccnc(NCCc2cccnc2)n1)c1nc2ccccc2s1 (stereo not drawn)
SNB75 [1]
  IC50 (absolute, viability): 13.1 µM
U251 [2]
  IC50 (absolute, viability): 11300 nM
KNS42 [3]
  IC50 (absolute, viability): 27.3 µM
T98 [4]
  IC50 (absolute, viability): 7.19 µM
SF268 [5]
  IC50 (absolute, viability): 7.05 µM
SF539 [6]
  IC50 (absolute, viability): 3.71 µM
U87 [7]
  IC50 (absolute, viability): 24.5 µM
U118 [8]
  IC50 (absolute, viability): 20.1 µM
AM38 [9]
  IC50 (absolute, viability): 10 µM

## Cc1cc([C@@H](C)Nc2ccccc2C(=O)O)c2nc(N3CCOCC3)cc(=O)n2c1 [AZD6482]
CAS-1
  IC50 (absolute, viability): 3.15 µM
SNB75 [1]
  IC50 (absolute, viability): 9.91 µM
U251 [2]
  IC50 (absolute, viability): 5070 nM
KNS42 [3]
  IC50 (absolute, viability): 41.4 µM
T98 [4]
  IC50 (absolute, viability): 8.39 µM
SF268 [5]
  IC50 (absolute, viability): 13.9 µM
SF539 [6]
  IC50 (absolute, viability): 4.86 µM
U87 [7]
  IC50 (absolute, viability): 6.69 µM
U118 [8]
  IC50 (absolute, viability): 22 µM
AM38 [9]
  IC50 (absolute, viability): 8.35 µM

## C[C@@H](Oc1cc(-c2cnn(C3CCNCC3)c2)cnc1N)c1c(Cl)ccc(F)c1Cl [Crizotinib]
CAS-1
  IC50 (absolute, viability): > 50 µM
U251 [2]
  IC50 (absolute, viability): 330 nM
KNS42 [3]
  IC50 (absolute, viability): 25 µM
T98 [4]
  IC50 (absolute, viability): 1.88 µM
SF268 [5]
  IC50 (absolute, viability): 0.0296 µM
SF539 [6]
  IC50 (absolute, viability): < 0.0229 µM
U87 [7]
  IC50 (absolute, viability): 3.63 µM
U118 [8]
  IC50 (absolute, viability): < 0.0229 µM

## CC(=O)O[C@@]12CO[C@@H]1C[C@H](O)[C@@]1(C)C(=O)[C@H](O)C3=C(C)[C@@H](OC(=O)[C@H](O)[C@@H](NC(=O)OC(C)(C)C)c4ccccc4)C[C@@](O)([C@@H](OC(=O)c4ccccc4)[C@H]21)C3(C)C [Docetaxel]
CAS-1
  IC50 (absolute, viability): 0.0437 µM
SNB75 [1]
  IC50 (absolute, viability): 0.00167 µM
U251 [2]
  IC50 (absolute, viability): 0.0604 nM
KNS42 [3]
  IC50 (absolute, viability): 0.00438 µM
T98 [4]
  IC50 (absolute, viability): 0.000818 µM
SF268 [5]
  IC50 (absolute, viability): 0.00231 µM
SF539 [6]
  IC50 (absolute, viability): 0.000628 µM
U87 [7]
  IC50 (absolute, viability): 0.00273 µM
U118 [8]
  IC50 (absolute, viability): 0.0101 µM
AM38 [9]
  IC50 (absolute, viability): 0.00128 µM

## C#Cc1cccc(Nc2ncnc3cc(OCCOC)c(OCCOC)cc23)c1 [Erlotinib]
CAS-1
  IC50 (absolute, viability): > 50 µM
SNB75 [1]
  IC50 (absolute, viability): 15 µM
KNS42 [3]
  IC50 (absolute, viability): 27.2 µM
T98 [4]
  IC50 (absolute, viability): 27.5 µM
SF268 [5]
  IC50 (absolute, viability): 38.1 µM
SF539 [6]
  IC50 (absolute, viability): 25 µM
U87 [7]
  IC50 (absolute, viability): 11.6 µM
U118 [8]
  IC50 (absolute, viability): 35.5 µM
AM38 [9]
  IC50 (absolute, viability): 27.8 µM

## Nc1ccn([C@@H]2O[C@H](CO)[C@@H](O)C2(F)F)c(=O)n1 [Gemcitabine]
CAS-1
  IC50 (absolute, viability): 0.207 µM
SNB75 [1]
  IC50 (absolute, viability): 0.147 µM
U251 [2]
  IC50 (absolute, viability): 149 nM
KNS42 [3]
  IC50 (absolute, viability): 0.859 µM
T98 [4]
  IC50 (absolute, viability): 0.45 µM
SF268 [5]
  IC50 (absolute, viability): 0.21 µM
SF539 [6]
  IC50 (absolute, viability): 0.182 µM
U87 [7]
  IC50 (absolute, viability): 0.0279 µM
U118 [8]
  IC50 (absolute, viability): 0.32 µM
AM38 [9]
  IC50 (absolute, viability): 0.145 µM

## CCOc1nc(NC(=O)Cc2cc(OC)ccc2OC)cc(N)c1C#N [JNK inhibitor VIII]
CAS-1
  IC50 (absolute, viability): 20.2 µM
SNB75 [1]
  IC50 (absolute, viability): 8.38 µM
U251 [2]
  IC50 (absolute, viability): 48700 nM
KNS42 [3]
  IC50 (absolute, viability): 36.5 µM
T98 [4]
  IC50 (absolute, viability): 6.36 µM
SF268 [5]
  IC50 (absolute, viability): 21.1 µM
SF539 [6]
  IC50 (absolute, viability): 7.09 µM
U87 [7]
  IC50 (absolute, viability): 12 µM
U118 [8]
  IC50 (absolute, viability): 28.8 µM
AM38 [9]
  IC50 (absolute, viability): 15.8 µM

## C=CCc1cccc(/C=N/NC(=O)CN2CCN(Cc3ccccc3)CC2)c1O [PAC-1]
CAS-1
  IC50 (absolute, viability): > 100 µM
SNB75 [1]
  IC50 (absolute, viability): 2.98 µM
U251 [2]
  IC50 (absolute, viability): 6150 nM
KNS42 [3]
  IC50 (absolute, viability): 17.8 µM
T98 [4]
  IC50 (absolute, viability): 1.71 µM
SF268 [5]
  IC50 (absolute, viability): 2.97 µM
SF539 [6]
  IC50 (absolute, viability): 3.06 µM
U87 [7]
  IC50 (absolute, viability): 7.18 µM
U118 [8]
  IC50 (absolute, viability): 5.44 µM
AM38 [9]
  IC50 (absolute, viability): 0.404 µM

## CO[C@H]1C[C@@H]2CC[C@@H](C)[C@@](O)(O2)C(=O)C(=O)N2CCCC[C@H]2C(=O)O[C@H]([C@H](C)C[C@@H]2CC[C@@H](O)[C@H](OC)C2)CC(=O)[C@H](C)/C=C(\C)[C@@H](O)[C@@H](OC)C(=O)[C@H](C)C[C@H](C)/C=C/C=C/C=C/1C [Rapamycin]
SNB75 [1]
  IC50 (absolute, viability): > 6.6 µM
KNS42 [3]
  IC50 (absolute, viability): > 6.6 µM
T98 [4]
  IC50 (absolute, viability): < 0.00302 µM
SF539 [6]
  IC50 (absolute, viability): < 0.00302 µM
U118 [8]
  IC50 (absolute, viability): > 6.6 µM
AM38 [9]
  IC50 (absolute, viability): < 0.00302 µM

## CCC(=O)N1CCN(c2ccc(-n3c(=O)ccc4cnc5ccc(-c6cnc7ccccc7c6)cc5c43)cc2C(F)(F)F)CC1 [Torin1]
CAS-1
  IC50 (absolute, viability): 0.0285 µM
SNB75 [1]
  IC50 (absolute, viability): 0.0191 µM
U251 [2]
  IC50 (absolute, viability): 199 nM
KNS42 [3]
  IC50 (absolute, viability): 0.434 µM
T98 [4]
  IC50 (absolute, viability): 0.0251 µM
SF268 [5]
  IC50 (absolute, viability): 0.0746 µM
SF539 [6]
  IC50 (absolute, viability): 0.028 µM
U87 [7]
  IC50 (absolute, viability): 0.0174 µM
U118 [8]
  IC50 (absolute, viability): 0.0274 µM
AM38 [9]
  IC50 (absolute, viability): 0.00418 µM

## CCC(=O)N1CCN(c2ccc(-n3c(=O)ccc4cnc5ccc(-c6cnc7ccccc7c6)cc5c43)cc2C(F)(F)F)CC1 [Torin1] + C#Cc1cccc(Nc2ncnc3cc(OCCOC)c(OCCOC)cc23)c1 [Erlotinib]
KNS-42 [10]
  Bliss synergy score: 1.13
AM-38 [11]
  Bliss synergy score: 0
T98G [12]
  Bliss synergy score: 4.09
SNB75 [13]
  Bliss synergy score: 15.6
U251 [14]
  Bliss synergy score: 25.4
SF268 [15]
  Bliss synergy score: 0.392
SF539 [16]
  Bliss synergy score: 0.68
U87 [17]
  Bliss synergy score: 0.359
U118 [18]
  Bliss synergy score: 2.65
KNS-42 [19]
  Loewe synergy score: 3.69
AM-38 [20]
  Loewe synergy score: 0
T98G [21]
  Loewe synergy score: 11
SNB75 [22]
  Loewe synergy score: 10.2
U251 [23]
  Loewe synergy score: 32.9
SF268 [24]
  Loewe synergy score: 10.5
SF539 [25]
  Loewe synergy score: 9.6
U87 [26]
  Loewe synergy score: 6.1
U118 [27]
  Loewe synergy score: 13.7
KNS-42 [28]
  HSA synergy score: 3.86
AM-38 [29]
  HSA synergy score: 0
T98G [30]
  HSA synergy score: 11.1
SNB75 [31]
  HSA synergy score: 18.2
U251 [32]
  HSA synergy score: 35.3
SF268 [33]
  HSA synergy score: 15.2
SF539 [34]
  HSA synergy score: 14
U87 [35]
  HSA synergy score: 11.5
U118 [36]
  HSA synergy score: 20.5
SNB75 [37]
  Chou-Talalay combination index: 0.61
U251 [38]
  Chou-Talalay combination index: 0.279
KNS42 [39]
  Chou-Talalay combination index: 0.917
T98 [40]
  Chou-Talalay combination index: 0.249
SF268 [41]
  Chou-Talalay combination index: 0.819
SF539 [42]
  Chou-Talalay combination index: 0.678
U87 [43]
  Chou-Talalay combination index: 0.58
U118 [44]
  Chou-Talalay combination index: 0.744
AM38 [45]
  Chou-Talalay combination index: 0.754
